Data published in patent US20240270771A1, “Compound containing phosphate group, pharmaceutical composition containing same, preparation method therefor and use thereof” (SHANGHAI RAISING PHARMACEUTICAL CO., LTD., priority 2021, published 2024).

Tests used:
[1] = tested on: Aβ40; test: Aβ40 content in culture supernatant of HEK293APP/sw overexpressing cells (ELISA kit); type: cell-based; settings: compound 400 μM, 24 hours, adjusted by total protein concentration, blank control 127.81
Description: (§1) BCA Protein Assay Kit was purchased from Beyotime, Aβ40 and Aβ42 detection kits were purchased from Wako, and cell culture related reagents were purchased from Gibco.
(§2) HEK293APP/sw overexpressing cells were cultured in DMEM medium containing 10% FBS, 100 μg/mL G418 (Geneticin) and 1×Penicillin-Streptomycin in 48-well plates. A 4 mM compound stock solution (prepared by dissolving the compound in DMEM culture medium) was filtered through a 0.22 μm sterile filter and stored at −20° C. for subsequent use. At 70% cell density, 40 μL of the compound test solution was added to each well to reach a final concentration of 400 μM, and the plate was incubated for 24 hours.
(§3) The supernatant of the culture medium was collected. The BCA reagent was added to a part of the supernatant, after incubating at room temperature for 30 min, the absorbance value (i.e., OD value) of each well was determined by a microplate reader at 570 nm. The total protein concentration was calculated according to a protein standard curve. Meanwhile, the other part of the supernatant (100 μL) was added to a coated 96-well plate and incubated overnight at 4° C., after the solution was removed and the reagents were washed, HRP (horseradish peroxidase)-labeled antibody was added and incubated at 4° C. for 2 hours. After the reagents were removed and washed, a TMB chromogenic solution was added, the plate was incubated at room temperature for 30 min, and then a stop solution was added to stop the reaction. The absorbance value (i.e., OD value) of each well was measured by a microplate reader at 450 nm. The concentrations of Aβ40 and Aβ42 were calculated according to the standard curves of Aβ40 and Aβ42, respectively. In the end, the concentrations of Aβ40 and Aβ42 were adjusted by the total protein concentration, so as to obtain the final concentration.

[2] = tested on: APP/PSi 2×Tg mice; test: Water maze behavior test; type: in vivo; settings: 200 mg/kg oral gavage once a day, 8 weeks; for The number of crossing the platform: test day 6, model group 0.9 ± 0.6; for Time in the target quadrant: test day 6, model group 12.8 ± 2.9, in s
Text: Rodents in water have a strong incentive to escape from the water environment, and can escape from the water environment in the fastest and most direct way. The process of learning to escape from the water environment reflects the learning ability of the animals. Spatial positioning according to the surrounding environment and purposefully swimming to a safe place in the water (such as a platform) can reflect the spatial learning and memory ability of the animals.
The test animals were APP/PSi 2×Tg mice (C57BL/6 wild-type mice as the blank control). Mice of 6-8 months old, weighing 20-40 g, were purchased from The Jackson laboratory.
APP/PSi mice are APP/PSi di-transgenic Alzheimer's disease (2×Tg-AD) model mice, and the appearance of deposition of Aβ is earlier than the pathological changes of tau protein for several months, which can more truly simulate the clinical process and pathological changes of Alzheimer's disease.
Preparation of 0.7% CMC-Na: 0.7 g CMC-Na was added with a proper amount of water, heated for dissolution, left for cooling to room temperature, diluted to 100 mL, and stored at 4° C.
Preparation of BTMP: 100 mg of BTMP was added to 10 mL of 0.7% CMC-Na to prepare a 10 mg/mL suspension for use.
Preparation of test compound and comparative compound 1: 100 mg of the compound to be tested was weighted and added to 10 mL of 0.7% CMC-Na to prepare a 10 mg/mL suspension for use.
The laboratory mice were randomly divided into groups (9 or 10 mice per group). Mice in each group were administrated at a dosage of 0.2 mL/10 g body weight by oral gavage once a day for eight weeks.
The mice in the blank control group, model group and test group were orally administrated for 8 consecutive weeks according to the above administration dosage/specification. The water maze training and test were started in the last week of administration. The water maze training and test lasted for six days, with a training period of five days and a testing period of one day. In addition, during the training and testing period of water maze (6 days in total), the indoor conditions such as lighting etc. were kept consistent, the room was kept quiet, and the interference from the environment and personnel was excluded.
2.1. Preparation before the test: a proper amount of water was put into the water maze pool with the water temperature being kept at 22±3° C. The platform was placed in a fixed position (target quadrant) and 1 cm below the water surface, and titanium dioxide was added until the water became white, so that the platform could not be seen clearly.
2.2. Training period (days 1 to 5): on each day, before the first quadrant training, each mouse was placed on the platform for 15 s (to increase the mice's sense of security on the platform), and then the mouse was put into the pool (with its head facing the pool wall) from the quadrant where the platform located, and the swimming time was set as 60 s. If the mouse found the platform within 60 s and stayed for 5 s, it was regarded as the platform being found successfully. If the mouse could not find the platform, then the time was recorded as 60 s. The mouse was guided to the platform and stayed for 20 s, the mouse was then taken out, and the quadrant training for this mouse was ended.
After the first quadrant training, the mouse was trained in the remaining three quadrants sequentially, where it is not necessary to place the mouse on the platform for 15 s before training. The training of each mouse in every two quadrants was conducted at an interval of 10-15 minute. In this way, the training was performed continuously for 5 days.
2.3. Testing period (day 6): 24 hours after the last training, the platform was removed, and the mouse was dropped at the position opposite to the quadrant where the platform previously located (i.e., the position furthest away from the platform). […]

[3] = tested on: Aβ42; test: Aβ42 content in culture supernatant of HEK293APP/sw overexpressing cells (ELISA kit); type: cell-based; settings: compound 400 μM, 24 hours, adjusted by total protein concentration, blank control 11.08
Description: as §1, §2, §3

[4] = test day 6, model group 45.0 ± 8.8

Row | Structure (SMILES) | The content of Aβ40 [1] | The number of crossing the platform [2] | Time in the target quadrant [2] | Latency period ([2]; test day 6, model group 45.0 ± 8.8, 200 mg/kg) | Latency period ([2]; test day 6, model group 45.0 ± 8.8, listed as compound 1, 200 mg/kg) | The content of Aβ42 [3] | Latency period [2, 4]
1 | CCCC(CCC)C(=O)S/C(CCOP(=O)(O)O)=C(/C)N(C=O)Cc1cnc(C)nc1N [Compound 1, (Z)—S-(2-(N-((4-amino-2-methylpyrimidin-5-yl)methyl)formamido)-5-(phosphonooxy)pent-2-en-3-yl) 2-propylpentanethioate] | 41.18 pmol/L | 2.4 ± 0.8 | 19.6 ± 3.4 | 22.0 ± 1.5 s | 22.0 ± 1.5 s | 3.32 pmol/L | 
2 | CCC(CC)C(=O)S/C(CCOP(=O)(O)O)=C(/C)N(C=O)Cc1cnc(C)nc1N [Compound 2, (Z)—S-(2-(N-((4-amino-2-methylpyrimidin-5-yl)methyl)formamido)-5-(phosphonooxy)pent-2-en-3-yl) 2-ethylbutanethioate] | 37.39 pmol/L | 2.2 ± 0.6 | 18.8 ± 2.6 |  |  | 3.34 pmol/L | 22.7 ± 1.1 s
3 | C/C(=C(\CCOP(=O)(O)O)SC(=O)c1ccco1)N(C=O)Cc1cnc(C)nc1N [Compound 9, (Z)—S-(2-(N-((4-amino-2-methylpyrimidin-5-yl)methyl)formamido)-5-(phosphonooxy)pent-2-en-3-yl) furan-2-carbothioate] | 42.88 pmol/L | 2.3 ± 0.5 | 18.6 ± 1.6 |  |  | 2.94 pmol/L | 22.8 ± 1.3 s
